Measurements taken from BindingDB's records for patent US12138263 (Relay Therapeutics, 2024).

Target: T1, Tyrosine-protein phosphatase non-receptor type 11 (Homo sapiens, UniProt Q06124)
T1 sequence (Q06124 whole entry): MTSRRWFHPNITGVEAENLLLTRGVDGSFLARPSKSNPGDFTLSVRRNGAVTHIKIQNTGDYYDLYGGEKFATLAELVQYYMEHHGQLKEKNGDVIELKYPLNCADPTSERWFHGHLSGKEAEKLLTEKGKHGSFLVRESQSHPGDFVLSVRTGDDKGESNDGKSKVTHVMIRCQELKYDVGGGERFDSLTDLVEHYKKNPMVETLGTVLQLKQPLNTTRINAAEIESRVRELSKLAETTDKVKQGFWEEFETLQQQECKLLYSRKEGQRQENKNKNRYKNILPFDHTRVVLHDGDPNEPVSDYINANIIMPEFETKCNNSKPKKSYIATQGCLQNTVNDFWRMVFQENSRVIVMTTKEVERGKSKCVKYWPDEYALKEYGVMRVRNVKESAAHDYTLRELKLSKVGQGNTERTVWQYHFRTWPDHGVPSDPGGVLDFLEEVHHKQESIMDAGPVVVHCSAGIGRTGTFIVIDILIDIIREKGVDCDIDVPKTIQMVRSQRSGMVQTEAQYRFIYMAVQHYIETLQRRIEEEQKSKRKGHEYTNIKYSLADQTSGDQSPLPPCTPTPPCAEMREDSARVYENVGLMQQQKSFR
Assay: SPH2 Allosteric Inhibition Assay and Binding

SMILES: CC1(CN)CCN(c2cnc3c(N4CCCc5c4cccc5S(=O)(=O)F)n[nH]c3n2)CC1 [US12138263, Compound 5A]
- IC50: < 1000 nM
